US9850283B2, “Macrocyclic inhibitors of the PD-1/PD-L1 and CD80(B7-1)/PD-L1 protein/protein interactions” (BRISTOL-MYERS SQUIBB COMPANY, priority 2013, dated 2017)
Positions of bridges follow the written chain, without caps; N, C: chain ends. Non-standard residues stand in square brackets, D forms with d. Residues, ends and D or L forms follow the SMILES beside them. Ala(indol-4-yl) = N[C@@H](Cc1cccc2[nH]ccc12)C(=O)O; Tyr(3,5-Br2) = N[C@@H](Cc1cc(Br)c(O)c(Br)c1)C(=O)O; Trp(5-Cl) = N[C@@H](Cc1c[nH]c2ccc(Cl)cc12)C(=O)O; Phe(3,4-(OMe)2) = COc1ccc(C[C@H](N)C(=O)O)cc1OC; Phe(3,4-Cl2) = N[C@@H](Cc1ccc(Cl)c(Cl)c1)C(=O)O; Phe(3-CF3) = N[C@@H](Cc1cccc(C(F)(F)F)c1)C(=O)O; Tyr(3-I) = N[C@@H](Cc1ccc(O)c(I)c1)C(=O)O; Phe(4-Cl) = N[C@@H](Cc1ccc(Cl)cc1)C(=O)O; Ala(2-furyl) = N[C@@H](Cc1ccco1)C(=O)O; Phe(2-Cl) = N[C@@H](Cc1ccccc1Cl)C(=O)O; Phe(4-Me) = Cc1ccc(C[C@H](N)C(=O)O)cc1; Phe(2-Me) = Cc1ccccc1C[C@H](N)C(=O)O; NMeF = CN[C@@H](Cc1ccccc1)C(=O)O; NMeNle = CCCC[C@H](NC)C(=O)O; Sar = CNCC(=O)O

Tests used:
[1] = biological target: T1, LK35.2-hPD-L1 cells / PE-labeled PD-1-Ig (Homo sapiens, UniProt Q9NZQ7); experiment: LK35.2-hPD-L1 cell binding high-content screening assay; format: cell-based; settings: cluster symbol; cell line of CBA not given (LK35.2-hPD-L1 or 293T-hPD-L1); read-out: CBA IC50 cluster
T1 construct: expressed in transfected cells; host or cells: LK35.2 mouse B cell line
T1 sequence (Q9NZQ7 19-290): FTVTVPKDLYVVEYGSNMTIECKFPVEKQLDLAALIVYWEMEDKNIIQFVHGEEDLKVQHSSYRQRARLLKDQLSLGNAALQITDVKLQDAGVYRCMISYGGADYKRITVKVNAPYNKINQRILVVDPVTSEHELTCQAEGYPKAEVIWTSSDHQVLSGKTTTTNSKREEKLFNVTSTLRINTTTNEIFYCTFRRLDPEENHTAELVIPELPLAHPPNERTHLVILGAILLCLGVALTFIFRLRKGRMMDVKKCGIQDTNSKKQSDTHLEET
Procedure, shortened: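 Compound effect on PD-1/PD-L1 binding is measured by imaging cell-associated phycoerythrin signal. Human PD-1-Ig (PE on Ig tag, 1 nM final) is applied with compound to a murine B cell line overexpressing human PD-L1 for 1 h at 37 °C in serum-containing RPMI.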

Human PD-L1/PD-1 = biological target: T2, Human PD-L1/PD-1 (Homo sapiens, UniProt Q9NZQ7); experiment: HTRF PD-1-Ig/PD-L1-His binding assay (human PD-L1); settings: cluster symbol; read-out: HTRF IC50 cluster
T2 construct: made in house; host or cells: HEK293T
T2 sequence (Q9NZQ7 with tags, fused parts or gaps): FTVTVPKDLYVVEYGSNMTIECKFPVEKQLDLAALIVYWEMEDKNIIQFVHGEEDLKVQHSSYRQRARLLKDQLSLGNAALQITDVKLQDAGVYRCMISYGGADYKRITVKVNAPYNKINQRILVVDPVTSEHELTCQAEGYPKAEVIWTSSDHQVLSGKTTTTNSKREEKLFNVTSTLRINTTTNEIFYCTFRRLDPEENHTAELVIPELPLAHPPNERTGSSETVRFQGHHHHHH
Procedure, shortened: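 Soluble PD-1-Ig binding to PD-L1-His measured by HTRF in dPBS with 0.1% BSA and 0.05% Tween-20. Detection used europium cryptate anti-Ig antibody (1 nM final) and APC anti-His antibody (20 nM final) added on top of the binding reaction.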

Row | IC50 [1] | IC50 (Human PD-L1/PD-1) | Structure (SMILES)
1 | 4.78 to 72.9 nM | > 30.5 nM | CCCC[C@H]1C(=O)N(C)CC(=O)N[C@@H](CC(=O)O)C(=O)N[C@@H](C(C)C)C(=O)N(C)[C@@H](Cc2ccccc2)C(=O)N[C@@H](Cc2ccc(O)cc2)C(=O)N(C)CC(=O)N[C@@H](Cc2c[nH]c3ccccc23)C(=O)N[C@@H](Cc2ccc(O)cc2)C(=O)N[C@@H](Cc2ccc(Cl)cc2)C(=O)N[C@H](C(=O)NCC(N)=O)CSCC(=O)N[C@@H](Cc2ccccc2)C(=O)N(C)[C@@H](Cc2ccccc2)C(=O)N1C [Example 3098] ({CH2CO}-F[NMeF][NMeNle][Sar]DV[NMeF]Y[Sar]WY[Phe(4-Cl)]CG-NH2; thioether N-13)
2 | > 74.3 nM | > 30.5 nM | CCCC[C@H]1C(=O)N(C)CC(=O)N[C@@H](CC(=O)O)C(=O)N[C@@H](C(C)C)C(=O)N(C)[C@@H](Cc2ccccc2)C(=O)N[C@@H](Cc2ccc(O)cc2)C(=O)N(C)CC(=O)N[C@@H](Cc2c[nH]c3ccccc23)C(=O)N[C@@H](Cc2ccc(Cl)cc2)C(=O)N[C@@H](CC(C)C)C(=O)N[C@H](C(=O)NCC(N)=O)CSCC(=O)N[C@@H](Cc2ccccc2)C(=O)N(C)[C@@H](Cc2ccccc2)C(=O)N1C [Example 3099] ({CH2CO}-F[NMeF][NMeNle][Sar]DV[NMeF]Y[Sar]W[Phe(4-Cl)]LCG-NH2; thioether N-13)
3 | > 74.3 nM | > 30.5 nM | CCCC[C@H]1C(=O)N(C)CC(=O)N[C@@H](CC(=O)O)C(=O)N[C@@H](C(C)C)C(=O)N(C)[C@@H](Cc2ccccc2)C(=O)N[C@@H](Cc2ccc(O)cc2)C(=O)N(C)CC(=O)N[C@@H](Cc2c[nH]c3ccccc23)C(=O)N[C@@H](Cc2ccc(Cl)c(Cl)c2)C(=O)N[C@@H](CC(C)C)C(=O)N[C@H](C(=O)NCC(N)=O)CSCC(=O)N[C@@H](Cc2ccccc2)C(=O)N(C)[C@@H](Cc2ccccc2)C(=O)N1C [Example 3100] ({CH2CO}-F[NMeF][NMeNle][Sar]DV[NMeF]Y[Sar]W[Phe(3,4-Cl2)]LCG-NH2; thioether N-13)
4 | > 74.3 nM | > 30.5 nM | CCCC[C@H]1C(=O)N(C)CC(=O)N[C@@H](CC(=O)O)C(=O)N[C@@H](C(C)C)C(=O)N(C)[C@@H](Cc2ccccc2)C(=O)N[C@@H](Cc2ccc(O)cc2)C(=O)N(C)CC(=O)N[C@@H](Cc2c[nH]c3ccccc23)C(=O)N[C@@H](Cc2ccc(O)cc2)C(=O)N[C@@H](CC(C)C)C(=O)N[C@H](C(=O)NCC(N)=O)CSCC(=O)N[C@@H](Cc2ccco2)C(=O)N(C)[C@@H](Cc2ccccc2)C(=O)N1C [Example 3101] ({CH2CO}-[Ala(2-furyl)][NMeF][NMeNle][Sar]DV[NMeF]Y[Sar]WYLCG-NH2; thioether N-13)
5 | > 74.3 nM | > 30.5 nM | CCCC[C@H]1C(=O)N(C)CC(=O)N[C@@H](CC(=O)O)C(=O)N[C@@H](C(C)C)C(=O)N(C)[C@@H](Cc2ccccc2)C(=O)N[C@@H](Cc2ccc(O)cc2)C(=O)N(C)CC(=O)N[C@@H](Cc2c[nH]c3ccccc23)C(=O)N[C@@H](Cc2ccc(O)cc2)C(=O)N[C@@H](CC(C)C)C(=O)N[C@H](C(=O)NCC(N)=O)CSCC(=O)N[C@@H](Cc2ccc(OC)c(OC)c2)C(=O)N(C)[C@@H](Cc2ccccc2)C(=O)N1C [Example 3102] ({CH2CO}-[Phe(3,4-(OMe)2)][NMeF][NMeNle][Sar]DV[NMeF]Y[Sar]WYLCG-NH2; thioether N-13)
6 | > 74.3 nM | > 30.5 nM | CCCC[C@H]1C(=O)N(C)CC(=O)N[C@@H](CC(=O)O)C(=O)N[C@@H](C(C)C)C(=O)N(C)[C@@H](Cc2ccccc2)C(=O)N[C@@H](Cc2ccc(O)cc2)C(=O)N(C)CC(=O)N[C@@H](Cc2c[nH]c3ccccc23)C(=O)N[C@@H](Cc2ccc(O)cc2)C(=O)N[C@@H](CC(C)C)C(=O)N[C@H](C(=O)NCC(N)=O)CSCC(=O)N[C@@H](Cc2cccc3[nH]ccc23)C(=O)N(C)[C@@H](Cc2ccccc2)C(=O)N1C [Example 3103] ({CH2CO}-[Ala(indol-4-yl)][NMeF][NMeNle][Sar]DV[NMeF]Y[Sar]WYLCG-NH2; thioether N-13)
7 | > 74.3 nM | > 30.5 nM | CCCC[C@H]1C(=O)N(C)CC(=O)N[C@@H](CC(=O)O)C(=O)N[C@@H](C(C)C)C(=O)N(C)[C@@H](Cc2ccccc2)C(=O)N[C@@H](Cc2ccc(O)cc2)C(=O)N(C)CC(=O)N[C@@H](Cc2c[nH]c3ccccc23)C(=O)N[C@@H](Cc2ccc(O)cc2)C(=O)N[C@@H](CC(C)C)C(=O)N[C@H](C(=O)NCC(N)=O)CSCC(=O)N[C@@H](Cc2ccccc2Cl)C(=O)N(C)[C@@H](Cc2ccccc2)C(=O)N1C [Example 3104] ({CH2CO}-[Phe(2-Cl)][NMeF][NMeNle][Sar]DV[NMeF]Y[Sar]WYLCG-NH2; thioether N-13)
8 | > 74.3 nM | > 30.5 nM | CCCC[C@H]1C(=O)N(C)CC(=O)N[C@@H](CC(=O)O)C(=O)N[C@@H](C(C)C)C(=O)N(C)[C@@H](Cc2ccccc2)C(=O)N[C@@H](Cc2ccc(O)cc2)C(=O)N(C)CC(=O)N[C@@H](Cc2c[nH]c3ccccc23)C(=O)N[C@@H](Cc2ccc(O)cc2)C(=O)N[C@@H](CC(C)C)C(=O)N[C@H](C(=O)NCC(N)=O)CSCC(=O)N[C@@H](Cc2ccccc2C)C(=O)N(C)[C@@H](Cc2ccccc2)C(=O)N1C [Example 3105] ({CH2CO}-[Phe(2-Me)][NMeF][NMeNle][Sar]DV[NMeF]Y[Sar]WYLCG-NH2; thioether N-13)
9 | 4.78 to 72.9 nM | > 30.5 nM | CCCC[C@H]1C(=O)N(C)CC(=O)N[C@@H](CC(=O)O)C(=O)N[C@@H](C(C)C)C(=O)N(C)[C@@H](Cc2ccccc2)C(=O)N[C@@H](Cc2ccc(O)cc2)C(=O)N(C)CC(=O)N[C@@H](Cc2c[nH]c3ccccc23)C(=O)N[C@@H](Cc2ccc(O)cc2)C(=O)N[C@@H](CC(C)C)C(=O)N[C@H](C(=O)NCC(N)=O)CSCC(=O)N[C@@H](Cc2cccc(C(F)(F)F)c2)C(=O)N(C)[C@@H](Cc2ccccc2)C(=O)N1C [Example 3106] ({CH2CO}-[Phe(3-CF3)][NMeF][NMeNle][Sar]DV[NMeF]Y[Sar]WYLCG-NH2; thioether N-13)
10 | 4.78 to 72.9 nM | 6.76 to 30.3 nM | CCCC[C@H]1C(=O)N(C)CC(=O)N[C@@H](CC(=O)O)C(=O)N[C@@H](C(C)C)C(=O)N(C)[C@@H](Cc2ccccc2)C(=O)N[C@@H](Cc2ccc(O)cc2)C(=O)N(C)CC(=O)N[C@@H](Cc2c[nH]c3ccccc23)C(=O)N[C@@H](Cc2ccc(O)cc2)C(=O)N[C@@H](Cc2ccc(C)cc2)C(=O)N[C@H](C(=O)NCC(N)=O)CSCC(=O)N[C@@H](Cc2ccccc2)C(=O)N(C)[C@@H](Cc2ccccc2)C(=O)N1C [Example 3107] ({CH2CO}-F[NMeF][NMeNle][Sar]DV[NMeF]Y[Sar]WY[Phe(4-Me)]CG-NH2; thioether N-13)
11 | 4.78 to 72.9 nM | > 30.5 nM | CCCC[C@H]1C(=O)N(C)CC(=O)N[C@@H](CC(=O)O)C(=O)N[C@@H](C(C)C)C(=O)N(C)[C@@H](Cc2ccccc2)C(=O)N[C@@H](Cc2c[nH]c3ccc(Cl)cc23)C(=O)N(C)CC(=O)N[C@@H](Cc2c[nH]c3ccccc23)C(=O)N[C@@H](Cc2ccc(O)cc2)C(=O)N[C@@H](CC(C)C)C(=O)N[C@H](C(=O)NCC(N)=O)CSCC(=O)N[C@@H](Cc2ccccc2)C(=O)N(C)[C@@H](Cc2ccccc2)C(=O)N1C [Example 3109] ({CH2CO}-F[NMeF][NMeNle][Sar]DV[NMeF][Trp(5-Cl)][Sar]WYLCG-NH2; thioether N-13)
12 | 0.158 to 4.71 nM | 6.76 to 30.3 nM | CCCC[C@H]1C(=O)N(C)CC(=O)N[C@@H](CC(=O)O)C(=O)N[C@@H](C(C)C)C(=O)N(C)[C@@H](Cc2ccccc2)C(=O)N[C@@H](Cc2cccc3[nH]ccc23)C(=O)N(C)CC(=O)N[C@@H](Cc2c[nH]c3ccccc23)C(=O)N[C@@H](Cc2ccc(O)cc2)C(=O)N[C@@H](CC(C)C)C(=O)N[C@H](C(=O)NCC(N)=O)CSCC(=O)N[C@@H](Cc2ccccc2)C(=O)N(C)[C@@H](Cc2ccccc2)C(=O)N1C [Example 3110] ({CH2CO}-F[NMeF][NMeNle][Sar]DV[NMeF][Ala(indol-4-yl)][Sar]WYLCG-NH2; thioether N-13)
13 | 4.78 to 72.9 nM | > 30.5 nM | CCCC[C@H]1C(=O)N(C)CC(=O)N[C@@H](CC(=O)O)C(=O)N[C@@H](C(C)C)C(=O)N(C)[C@@H](Cc2ccccc2)C(=O)N[C@@H](Cc2ccc(O)c(I)c2)C(=O)N(C)CC(=O)N[C@@H](Cc2c[nH]c3ccccc23)C(=O)N[C@@H](Cc2ccc(O)cc2)C(=O)N[C@@H](CC(C)C)C(=O)N[C@H](C(=O)NCC(N)=O)CSCC(=O)N[C@@H](Cc2ccccc2)C(=O)N(C)[C@@H](Cc2ccccc2)C(=O)N1C [Example 3111] ({CH2CO}-F[NMeF][NMeNle][Sar]DV[NMeF][Tyr(3-I)][Sar]WYLCG-NH2; thioether N-13)
14 | > 74.3 nM | > 30.5 nM | CCCC[C@H]1C(=O)N(C)CC(=O)N[C@@H](CC(=O)O)C(=O)N[C@@H](C(C)C)C(=O)N(C)[C@@H](Cc2ccccc2)C(=O)N[C@@H](Cc2ccc(O)cc2)C(=O)N(C)CC(=O)N[C@@H](Cc2c[nH]c3ccccc23)C(=O)N[C@@H](Cc2cc(Br)c(O)c(Br)c2)C(=O)N[C@@H](CC(C)C)C(=O)N[C@H](C(=O)NCC(N)=O)CSCC(=O)N[C@@H](Cc2ccccc2)C(=O)N(C)[C@@H](Cc2ccccc2)C(=O)N1C [Example 3112] ({CH2CO}-F[NMeF][NMeNle][Sar]DV[NMeF]Y[Sar]W[Tyr(3,5-Br2)]LCG-NH2; thioether N-13)
15 | 4.78 to 72.9 nM | 6.76 to 30.3 nM | CCCC[C@H]1C(=O)N(C)CC(=O)N[C@@H](CC(=O)O)C(=O)N[C@@H](C(C)C)C(=O)N(C)[C@@H](Cc2ccccc2)C(=O)N[C@@H](Cc2cc(Br)c(O)c(Br)c2)C(=O)N(C)CC(=O)N[C@@H](Cc2c[nH]c3ccccc23)C(=O)N[C@@H](Cc2ccc(O)cc2)C(=O)N[C@@H](CC(C)C)C(=O)N[C@H](C(=O)NCC(N)=O)CSCC(=O)N[C@@H](Cc2ccccc2)C(=O)N(C)[C@@H](Cc2ccccc2)C(=O)N1C [Example 3113] ({CH2CO}-F[NMeF][NMeNle][Sar]DV[NMeF][Tyr(3,5-Br2)][Sar]WYLCG-NH2; thioether N-13)
